≈ marks a conversion by molar mass, not a printed value. Calls of active or inactive are those of the source. The rule behind the calls is not given here.
Assays:
[1] = in vivo; conditions: rat, urine, po, 10 mg/kg
[2] = in vitro; conditions: human, microsomes
[3] = in vivo; conditions: mouse, plasma
[4] = in vivo; conditions: mouse, plasma; remark: listed apart in the source
[5] = in vitro; conditions: human, microsomes; remark: listed apart in the source
[6] = in vivo; conditions: mouse, iv, 2 mg/kg
[7] = physchem; conditions: fed state simulated intestinal fluid (FeSSIF)
[8] = in vivo; conditions: mouse, po, 4 mg/kg
[9] = organism: Mus musculus; assay: animal or person; conditions: NZB/WF1, po, 504 h, read-out: INH
[10] = in vivo; conditions: rhesus monkey, iv, 1 mg/kg
[11] = in vivo; conditions: dog, po, 2 mg/kg
[12] = in vitro; conditions: rhesus monkey, plasma
[13] = molecular target: Tyrosine-protein kinase BTK (Mus musculus) (UniProt P35991); conditions: DBA1/J, 2.5 mg/kg
Sequence of Tyrosine-protein kinase BTK (Mus musculus) (P35991 whole entry): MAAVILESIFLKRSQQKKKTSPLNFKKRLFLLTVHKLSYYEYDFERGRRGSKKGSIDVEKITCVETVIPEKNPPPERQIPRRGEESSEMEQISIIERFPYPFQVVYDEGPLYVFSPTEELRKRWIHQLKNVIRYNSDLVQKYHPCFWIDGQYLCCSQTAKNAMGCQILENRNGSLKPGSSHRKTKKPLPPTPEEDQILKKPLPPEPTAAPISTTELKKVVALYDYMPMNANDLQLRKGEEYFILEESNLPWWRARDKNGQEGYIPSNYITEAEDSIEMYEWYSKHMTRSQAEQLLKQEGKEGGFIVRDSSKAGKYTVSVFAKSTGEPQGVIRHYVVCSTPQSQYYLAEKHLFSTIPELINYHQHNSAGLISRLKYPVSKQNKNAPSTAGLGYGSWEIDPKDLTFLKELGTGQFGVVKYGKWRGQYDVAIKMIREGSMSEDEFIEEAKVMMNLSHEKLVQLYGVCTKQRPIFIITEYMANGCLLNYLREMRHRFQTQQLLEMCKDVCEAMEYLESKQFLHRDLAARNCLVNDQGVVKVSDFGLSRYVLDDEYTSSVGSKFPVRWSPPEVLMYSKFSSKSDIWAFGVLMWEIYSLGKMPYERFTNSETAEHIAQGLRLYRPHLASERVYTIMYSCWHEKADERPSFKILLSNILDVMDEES

[14] = in vivo; conditions: rat, po, 5 mg/kg
[15] = molecular target: Tyrosine-protein kinase BTK (Mus musculus) (UniProt P35991); conditions: 0.5 to 2.5 mg/kg
[16] = in vivo; conditions: dog, iv, 1 mg/kg
[17] = in vitro; conditions: human, Caco-2
[18] = in vitro; conditions: human, plasma
[19] = in vivo; conditions: dog, iv, 1 mg/kg; remark: listed apart in the source
[20] = molecular target: Tyrosine-protein kinase BTK (Mus musculus) (UniProt P35991); conditions: DBA1/J, 0.5 mg/kg
[21] = in vivo; conditions: dog, iv, 1 mg/kg; remark: listed apart in the source
[22] = in vivo; conditions: rat, po, 5 mg/kg; remark: listed apart in the source
[23] = in vitro; conditions: PAMPA, pH 5.5
[24] = in vivo; conditions: dog, iv, 1 mg/kg; remark: listed apart in the source
[25] = in vivo; conditions: rat, iv, 5 mg/kg
[26] = in vivo; conditions: mouse, iv, 2 mg/kg; remark: listed apart in the source
[27] = in vivo; conditions: mouse, iv, 2 mg/kg; remark: listed apart in the source
[28] = in vivo; conditions: rhesus monkey, po, 2 mg/kg
[29] = in vitro; conditions: mouse, plasma
[30] = in vivo; conditions: rat, iv, 5 mg/kg; remark: listed apart in the source
[31] = test system: Cynomolgus monkey; assay: animal or person; conditions: Macaca fascicularis, po, 72 h, read-out: INH
[32] = in vitro; conditions: rat, plasma
[33] = organism: Homo sapiens; conditions: 10 uM
[34] = molecular target: Tyrosine-protein kinase BTK (Mus musculus) (UniProt P35991); conditions: NZB/WF1, 0.5 mg/kg
[35] = in vivo; conditions: dog, po, 2 mg/kg; remark: listed apart in the source
[36] = in vivo; conditions: rhesus monkey, iv, 1 mg/kg; remark: listed apart in the source
[37] = molecular target: Tyrosine-protein kinase BTK (Mus musculus) (UniProt P35991); conditions: DBA1/J, 0.1 mg/kg
[38] = physchem; conditions: fasted state simulated intestinal fluid (FaSSIF)
[39] = in vitro; conditions: PAMPA, pH 7.4
[40] = organism: Homo sapiens; conditions: 10 uM; remark: listed apart in the source
[41] = physchem; conditions: buffer, pH 7
[42] = in vivo; conditions: mouse, po, 4 mg/kg; remark: listed apart in the source
[43] = in vivo; conditions: mouse, po, 4 mg/kg; remark: listed apart in the source
[44] = molecular target: Tyrosine-protein kinase BTK (Mus musculus) (UniProt P35991); conditions: 0.5 mg/kg
[45] = in vivo; conditions: rhesus monkey, po, 2 mg/kg; remark: listed apart in the source
[46] = in vivo; conditions: dog, po, 2 mg/kg; remark: listed apart in the source
[47] = organism: Mus musculus; assay: animal or person; conditions: NZB/WF1, po, 504 h, read-out: INH; remark: listed apart in the source
[48] = in vivo; conditions: rat, iv, 5 mg/kg; remark: listed apart in the source
[49] = in vivo; conditions: rhesus monkey, iv, 1 mg/kg; remark: listed apart in the source
[50] = in vitro; conditions: dog, plasma
[51] = in vivo; conditions: rat, po, 5 mg/kg; remark: listed apart in the source
[52] = in vivo; conditions: rhesus monkey, iv, 1 mg/kg; remark: listed apart in the source
[53] = in vivo; conditions: rat, po, 5 mg/kg; remark: listed apart in the source
[54] = physchem; conditions: buffer, pH 1
[55] = in vivo; conditions: rhesus monkey, po, 2 mg/kg; remark: listed apart in the source
[56] = in vivo; conditions: rhesus monkey, po, 2 mg/kg; remark: listed apart in the source
[57] = organism: Mus musculus; assay: animal or person; conditions: DBA1/J, po, 912 h, read-out: INH
[58] = in vivo; conditions: dog, po, 2 mg/kg; remark: listed apart in the source
[59] = molecular target: Tyrosine-protein kinase BTK (Mus musculus) (UniProt P35991); conditions: 0.5 mg/kg; remark: listed apart in the source
[60] = in vivo; conditions: mouse, po, 4 mg/kg; remark: listed apart in the source
[61] = test system: B cell; assay: cells; conditions: Homo sapiens
[62] = in vivo; conditions: mouse, iv, 2 mg/kg; remark: listed apart in the source
[63] = organism: Mus musculus; assay: animal or person; conditions: NZB/WF1, po, 504 h, read-out: INH; remark: listed apart in the source
[64] = test system: Cynomolgus monkey; assay: animal or person; conditions: Macaca fascicularis, po, 4 h, read-out: INH
[65] = in vivo; conditions: rat, iv, 5 mg/kg; remark: listed apart in the source
[66] = in vitro; conditions: human, Caco-2; remark: listed apart in the source
[67] = molecular target: Tyrosine-protein kinase BTK (Mus musculus) (UniProt P35991); conditions: NZB/WF1, 0.2 mg/kg
[68] = organism: Mus musculus; conditions: DBA1/J, 0.1 to 2.5 mg/kg

Work on `CC#C[14C](=O)N[C@H]1CCCN(c2c(F)cc(C(N)=O)c3[nH]c(C)c(C)c23)C1` yielded a dose excreted at 72 h [1] of 0.7%.
Work on `C=CS(=O)(=O)N[C@@H]1CCCN(c2ccc(C(N)=O)c3[nH]c(C)c(C)c23)C1` yielded a remaining at 10 min [2] of 84%.
`CC#CC(=O)N[C@H]1CCCN(c2ccc(C(N)=O)c3[nH]c(C)c(C)c23)C1` gave a Cmax [3] of 0.49 µM and an AUC [4] of 1.1 µM·h.
Compound `C=CS(=O)(=O)N[C@H]1CCCN(c2ccc(C(N)=O)c3[nH]c(C)c(C)c23)C1` has a Cmax [3] of 0.127 µM, a remaining at 10 min [2] of 90% and a half-life [5] of 0.833 h.
Work on `CC#CC(=O)N[C@H]1CCCN(c2c(F)cc(C(N)=O)c3[nH]c(C)c(C)c23)C1` [BRANEBRUTINIB] yielded a clearance [6] of 14 mL/min/kg, a solubility [7] of 145 µg/mL (≈ 391 µM) and an AUC [8] of 14 µM·h. It also gave an inhibition in vivo at 0.2 mg/kg [9] of 40%, a Cmax [3] of 42 µM and an AUC [4] of 52 µM·h. It also gave a clearance [10] of 9.4 mL/min/kg, a bioavailability [11] of 81% and a fraction unbound [12] of 0.004. The inhibition [13] was 99%, the Tmax [14] was 0.58 h and the inhibition [15] was 25%. For the same compound, the clearance [16] was 0.94 mL/min/kg, the Papp A→B [17] was 17.7 to 42.2 ×10⁻⁶ cm/s and the fraction unbound [18] was 0.012. The MRT [19] was 4.1 h, the inhibition [20] was 97% and the Vd [21] was 0.24 L/kg. The AUC [22] was 18 µM·h, the Papp [23] was 85.9 ×10⁻⁶ cm/s and the half-life [24] was 3 h. The clearance [25] was 8.7 mL/min/kg, the Vd [26] was 0.48 L/kg and the MRT [27] was 0.57 h. It also gave a bioavailability [28] of 46%, a fraction unbound [29] of 0.004 and a Vd [30] of 0.4 L/kg. For the same compound, the inhibition in vivo at 0.5 mg/kg [31] was 74%, the fraction unbound [32] was 0.002 and the inhibition [33] was 23%. It also gave an inhibition [34] of 99%, an AUC [35] of 78 µM·h and a half-life [36] of 3.2 h. For the same compound, the inhibition [37] was 64%, the solubility [38] was 9 µg/mL (≈ 24.3 µM) and the Papp [39] was 97.8 ×10⁻⁶ cm/s. It also gave an inhibition [40] of 3.1%, a logD [41] of 3.18 and a Cmax [42] of 7.7 µM. It also gave a bioavailability [43] of 106%, an inhibition [44] of 86% and a Tmax [45] of 1 h. The Cmax [46] was 19 µM, the inhibition in vivo at […] [47] was 61% and the MRT [48] was 0.8 h. It also gave a Vd [49] of 0.45 L/kg, a fraction unbound [50] of 0.002 and a Cmax [51] of 9.6 µM. It also gave an MRT [52] of 1 h, a bioavailability [53] of 74% and a solubility [54] of 2 to 3 µg/mL (≈ 5.4 to 8.1 µM). For the same compound, the Cmax [55] was 2.3 µM, the AUC [56] was 4.9 µM·h and the inhibition in vivo at 2.5 mg/kg [57] was 92%. For the same compound, the Tmax [58] was 0.67 h, the inhibition [59] was 90% and the Tmax [60] was 1 h. The IC50 [61] was 0.04 nM, the half-life [62] was 0.46 h and the inhibition in vivo at 0.5 mg/kg [63] was 51%. The inhibition in vivo at 0.5 mg/kg [64] was 100%, the half-life [65] was 4.3 h and the Papp B→A [66] was 12.7 to 25 ×10⁻⁶ cm/s. The inhibition [67] was 92% and the inhibition [68] was “Active”.

Source: ChEMBL document CHEMBL4616583 (J Med Chem, 2019)
